In experiment [1] the target is T1, Recombinant full-length human IDO1 (Homo sapiens, UniProt P14902).
T1 construct: Recombinant full-length human IDO1 with a N-terminal hexahistidine tag; hexahistidine (His6) (N); made in house; host or cells: E. coli
Nature of the experiment: IDO1 enzymatic assay (NFK quantified by LCMS). The class given is biochemical. The following applies: 2 nM enzyme, 5 μM L-tryptophan, pH6.5, 30 minutes pre-incubation at RT; mean values when measured multiple times; read-out: hIDO activity (IC50 in nM). A digest of the protocol: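 His-tagged human IDO1 (2 nM) in pH 6.5 phosphate buffer with ascorbate, methylene blue and catalase was preincubated with compound (10 μM–0.5 nM, 0.6% DMSO) for 30 min at RT. The reaction then ran with 5 μM L-Trp for 30 min. NFK was measured by LCMS against a d5-Trp standard, and IC50 was obtained by four-parameter fit.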

In experiment [2] the target is T2, Recombinant human TDO comprising amino acids 19-407 (Homo sapiens, UniProt P48775).
T2 construct: Recombinant human TDO comprising amino acids 19-407 with a N-terminal hexahistidine tag; hexahistidine (His6) (N); made in house; host or cells: E. coli
Nature of the experiment: TDO2 enzymatic assay (NFK quantified by LCMS). The class given is biochemical. The conditions noted are these: 15 nM enzyme, 200 μM L-tryptophan, pH7, 30 minutes pre-incubation at RT; mean values when measured multiple times; read-out: hTDO activity (IC50 in nM). Summed up: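 NFK formed over 30 min at RT from 200 μM L-tryptophan was measured by LCMS, normalized to d5-tryptophan, after compound (0.5 nM–10 μM, duplicates, 0.6% DMSO) was preincubated 30 min with 15 nM recombinant His-tagged TDO 19-407 in phosphate buffer pH 7. IC50 from four-parameter logistic fit; repeats averaged.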

Here are results for 25 compounds from US20200405696A1, “INHIBITORS OF INDOLEAMINE 2,3-DIOXYGENASE AND/OR TRYPTOPHAN 2,3-DIOXYGENASE” (IDORSIA PHARMACEUTICALS LTD, priority 2018, published 2020).

What is called IC50 is the midpoint of a concentration-inhibition curve.

Some results are limits rather than exact numbers.

T1 sequence (P14902 whole entry): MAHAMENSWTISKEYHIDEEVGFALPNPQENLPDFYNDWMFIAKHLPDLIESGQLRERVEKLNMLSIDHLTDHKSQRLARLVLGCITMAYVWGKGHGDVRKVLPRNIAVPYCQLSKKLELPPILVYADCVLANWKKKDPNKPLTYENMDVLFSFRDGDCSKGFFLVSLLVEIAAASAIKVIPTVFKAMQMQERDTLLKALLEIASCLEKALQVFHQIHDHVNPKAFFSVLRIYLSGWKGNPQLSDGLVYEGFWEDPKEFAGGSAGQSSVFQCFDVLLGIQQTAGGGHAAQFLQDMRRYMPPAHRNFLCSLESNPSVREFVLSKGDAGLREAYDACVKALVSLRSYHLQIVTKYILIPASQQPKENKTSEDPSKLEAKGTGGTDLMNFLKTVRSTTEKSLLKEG
T2 sequence (P48775 19-406 limits assumed): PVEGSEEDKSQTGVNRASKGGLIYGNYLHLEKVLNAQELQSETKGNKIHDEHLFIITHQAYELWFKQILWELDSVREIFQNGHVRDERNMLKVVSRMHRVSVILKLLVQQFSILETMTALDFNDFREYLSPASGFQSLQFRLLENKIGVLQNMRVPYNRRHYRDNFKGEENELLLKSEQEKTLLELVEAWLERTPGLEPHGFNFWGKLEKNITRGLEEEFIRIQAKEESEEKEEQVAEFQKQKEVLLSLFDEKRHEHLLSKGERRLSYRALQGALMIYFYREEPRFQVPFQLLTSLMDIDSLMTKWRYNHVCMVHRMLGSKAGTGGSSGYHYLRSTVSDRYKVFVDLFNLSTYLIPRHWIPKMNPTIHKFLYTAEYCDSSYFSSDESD

For the compound `COc1ccc(-n2cc(C(O)c3c(C4CC4)sc4cncn34)cn2)cn1` (racemic) [Example 223, rac-(2-Cyclopropyl-imidazo[5,1-b]thiazol-3-yl)-[1-(6-methoxy-pyridin-3-yl)-1H-pyrazol-4-yl]-methanol], the IC50 is 164 nM in experiment [1] and more than 10200 nM in experiment [2].
For the compound `CC(=O)Nc1ccc(-n2cc(C(O)c3c(C4CC4)sc4cncn34)cn2)cc1` (racemic) [Example 224, rac-N-(4-{4-[(2-Cyclopropyl-imidazo[5,1-b]thiazol-3-yl)-hydroxy-methyl]-pyrazol-1-yl}-phenyl)-acetamide], the IC50 is 1100 nM in experiment [1] and more than 10200 nM in experiment [2].
On the same counts, the results for `COc1ccc(-n2nnc(C(O)c3c(C4CC4)sc4cncn34)c2C(C)(C)C)cc1` (racemic) [Example 274, rac-[5-tert-Butyl-1-(4-methoxy-phenyl)-1H-[1,2,3]triazol-4-yl]-(2-cyclopropyl-imidazo[5,1-b]thiazol-3-yl)-methanol] are 36 nM and more than 10200 nM.
The like results for `COc1ccc(-n2nnc(C(O)c3c(C4CC4)sc4cncn34)c2C2CC2)cc1` (racemic) [Example 281, rac-(2-Cyclopropyl-imidazo[5,1-b]thiazol-3-yl)-[5-cyclopropyl-1-(4-methoxy-phenyl)-1H-[1,2,3]triazol-4-yl]-methanol] were, in that order, 13.7 nM and 9020 nM.
Turning to `OC(c1cn(-c2ccc(OCCOCC(F)(F)F)cc2)nn1)c1c(C2CC2)sc2cncn12` (racemic) [Example 312, rac-(2-Cyclopropyl-imidazo[5,1-b]thiazol-3-yl)-(1-{4-[2-(2,2,2-trifluoro-ethoxy)-ethoxy]-phenyl}-1H-[1,2,3]triazol-4-yl)-methanol], the figures for the IC50 in experiment [1] and in experiment [2] were 29.4 nM and more than 10200 nM, respectively.
As for `CCNS(=O)(=O)c1ccc(-n2cc(C(O)c3c(C4CC4)sc4cncn34)nn2)cc1` (racemic) [Example 239, rac-4-{4-[(2-Cyclopropyl-imidazo[5,1-b]thiazol-3-yl)-hydroxy-methyl]-[1,2,3]triazol-1-yl}-N-ethyl-benzenesulfonamide], the IC50 was 53 nM in experiment [1] and more than 10200 nM in experiment [2].
The like results for `COc1ccc(-n2nnc(C(O)c3c(C4CC4)sc4cncn34)c2C)cc1Cl` (racemic) [Example 295, rac-[1-(3-Chloro-4-methoxy-phenyl)-5-methyl-1H-[1,2,3]triazol-4-yl]-(2-cyclopropyl-imidazo[5,1-b]thiazol-3-yl)-methanol] were, in that order, 6.63 nM and 8840 nM.
`CC(C)(O)CCOc1ccc(-n2cc(C(O)c3c(C(C)(F)F)sc4cncn34)nn2)cc1Cl` (racemic) [Example 307, rac-4-[2-Chloro-4-(4-{[2-(1,1-difluoro-ethyl)-imidazo[5,1-b]thiazol-3-yl]-hydroxy-methyl}-[1,2,3]triazol-1-yl)-phenoxy]-2-methyl-butan-2-ol]: the concentration for half-maximal inhibition (IC50) is 13.9 nM in experiment [1] and more than 10200 nM in experiment [2].
The like results for `CC(C)(O)CCOc1ccc(-n2cc(C(O)c3c([C@@H]4C[C@H]4F)sc4cncn34)nn2)cc1Cl` (relative stereo) [Example 308, 4-[2-Chloro-4-(4-{[2-(trans-2-fluoro-cyclopropyl)-imidazo[5,1-b]thiazol-3-yl]-hydroxy-methyl}-[1,2,3]triazol-1-yl)-phenoxy]-2-methyl-butan-2-ol] were, in that order, 12.7 nM and more than 10200 nM.
In the case of `CCc1sc2cncn2c1C(O)c1cn(-c2ccc(S(=O)(=O)NC)cc2)nn1` (racemic) [Example 225, rac-4-{4-[(2-Ethyl-imidazo[5,1-b]thiazol-3-yl)-hydroxy-methyl]-[1,2,3]triazol-1-yl}-N-methyl-benzenesulfonamide], the IC50 in experiment [1] is 47.2 nM; in experiment [2], more than 10200 nM.
For `COC(=O)Nc1ccc(-n2cc(C(O)c3c(C4CC4)sc4cncn34)cn2)cc1` (racemic) [Example 132, rac-(4-{4-[(2-Cyclopropyl-imidazo[5,1-b]thiazol-3-yl)-hydroxy-methyl]-pyrazol-1-yl}-phenyl)-carbamic Acid Methyl Ester], the IC50 was 18.2 nM in experiment [1] and 1770 nM in experiment [2].
As to `OC(c1cn(-c2ccc(OCC3CCCO3)cc2)nn1)c1c(C2CC2)sc2cncn12` (racemic) [Example 90, rac-(2-Cyclopropyl-imidazo[5,1-b]thiazol-3-yl)-{1-[4-(tetrahydro-furan-2-ylmethoxy)-phenyl]-1H-[1,2,3]triazol-4-yl}-methanol], the IC50 in experiment [1] is 18.7 nM; in experiment [2] it was more than 10200 nM.
On to `OC(c1cn(-c2ccc(OCc3ccccc3)nc2)nn1)c1c(C2CC2)sc2cncn12` (racemic) [Example 77, rac-[1-(6-Benzyloxy-pyridin-3-yl)-1H-[1,2,3]triazol-4-yl]-(2-cyclopropyl-imidazo[5,1-b]thiazol-3-yl)-methanol], for which the IC50 in experiment [1] is 32.7 nM; in experiment [2], more than 10200 nM.
`OC(c1ccc(-c2cccnc2)s1)c1c(C2CC2)sc2cncn12` (racemic) [Example 160, rac-(2-Cyclopropyl-imidazo[5,1-b]thiazol-3-yl)-(5-pyridin-3-yl-thiophen-2-yl)-methanol]: the IC50 in experiment [1] was determined as 230 nM; in experiment [2], 5320 nM.
On to `OC(c1cn(Cc2ccccc2)nn1)c1c(C2CC2)sc2cncn12` (racemic) [Example 1, rac-(1-Benzyl-1H-[1,2,3]triazol-4-yl)-(2-cyclopropyl-imidazo[5,1-b]thiazol-3-yl)-methanol], for which the half-maximal inhibitory concentration (IC50) in experiment [1] is 90.3 nM; in experiment [2], more than 10200 nM.
With `CC(C)C(=O)Nc1ccc(-n2cc(C(O)c3c(C4CC4)sc4cncn34)cn2)cc1` (racemic) [Example 246, rac-N-(4-{4-[(2-Cyclopropyl-imidazo[5,1-b]thiazol-3-yl)-hydroxy-methyl]-pyrazol-1-yl}-phenyl)-isobutyramide], the IC50 in experiment [1] is 29.8 nM; in experiment [2] it was 3800 nM.
The like results for `COc1ccc(-n2cc(C(O)c3c(C(F)(F)F)sc4cncn34)nn2)cc1` (racemic) [Example 134, rac-[1-(4-Methoxy-phenyl)-1H-[1,2,3]triazol-4-yl]-(2-trifluoromethyl-imidazo[5,1-b]thiazol-3-yl)-methanol] were, in that order, 11.4 nM and more than 10200 nM.
On to `CCNC(=O)c1ccc(-n2cc(C(O)c3c(CC)sc4cncn34)nn2)cc1` (racemic) [Example 128, rac-N-Ethyl-4-{4-[(2-ethyl-imidazo[5,1-b]thiazol-3-yl)-hydroxy-methyl]-[1,2,3]triazol-1-yl}-benzamide], for which the IC50 was 16.5 nM in experiment [1] and 9780 nM in experiment [2].
On the same counts, the results for `CNS(=O)(=O)c1ccc(-n2cc(C(O)c3c(C4CC4)sc4cncn34)nn2)cc1` (racemic) [Example 226, rac-4-{4-[(2-Cyclopropyl-imidazo[5,1-b]thiazol-3-yl)-hydroxy-methyl]-[1,2,3]triazol-1-yl}-N-methyl-benzenesulfonamide] are 63.6 nM and more than 10200 nM.
The like results for `OC(c1ncc(-c2ccccc2)s1)c1c(C2CC2)sc2cncn12` (racemic) [Example 171, rac-(2-Cyclopropyl-imidazo[5,1-b]thiazol-3-yl)-(5-phenyl-thiazol-2-yl)-methanol] were, in that order, 578 nM and more than 10200 nM.
The like results for `CCc1sc2cncn2c1C(O)c1cn(-c2ccc(C(N)=O)cc2)nn1` (racemic) [Example 116, rac-4-{4-[(2-Ethyl-imidazo[5,1-b]thiazol-3-yl)-hydroxy-methyl]-[1,2,3]triazol-1-yl}-benzamide] were, in that order, 12.3 nM and 5210 nM.
As for `OC(c1ccc(-c2cncc3ccccc23)s1)c1c(C2CC2)sc2cncn12` (racemic) [Example 177, rac-(2-Cyclopropyl-imidazo[5,1-b]thiazol-3-yl)-(5-isoquinolin-4-yl-thiophen-2-yl)-methanol], the results for the half-maximal inhibitory concentration (IC50) in experiment [1] and in experiment [2] were 138 nM and 8620 nM, respectively.
The like results for `COc1ccc(-n2nnc(C(O)c3c(C4CC4)sc4cncn34)c2I)cc1` (racemic) [Example 334, rac-(2-Cyclopropyl-imidazo[5,1-b]thiazol-3-yl)-[5-iodo-1-(4-methoxy-phenyl)-1H-[1,2,3]triazol-4-yl]-methanol] were, in that order, 12.1 nM and 7280 nM.
As for `OC(c1ccc(-c2ccc(C(F)(F)F)cc2)s1)c1c(C2CC2)sc2cncn12` (racemic) [Example 162, rac-(2-Cyclopropyl-imidazo[5,1-b]thiazol-3-yl)-[5-(4-trifluoromethyl-phenyl)-thiophen-2-yl]-methanol], the figures for the half-maximal inhibitory concentration (IC50) in experiment [1] and in experiment [2] were 1250 nM and more than 10200 nM, respectively.
Take `COC(=O)COc1ccc(-n2cc(C(O)c3c(C4CC4)sc4cncn34)nn2)cn1` (racemic) [Example 75, rac-(5-{4-[(2-Cyclopropyl-imidazo[5,1-b]thiazol-3-yl)-hydroxy-methyl]-[1,2,3]triazol-1-yl}-pyridin-2-yloxy)-acetic acid methyl ester]: the results for the IC50 in experiment [1] and in experiment [2] were 40.7 nM and more than 10200 nM, respectively.
